Laboratory results from patent publication US4587340A, “Biopterin analogs” (Burroughs Wellcome Co., priority 1984, dated 1986).
One block for each compound: values may come before it.

Assays:
bovine liver DHFR = molecular target: T1, bovine liver DHFR (Bos taurus, UniProt P00376); test: Dihydrofolate reductase assay; format: biochemical; details: for Dihydrofolate reductase V: 7,8-dihydro form of the pterin, 7,8-dihydrobiopterin = 100
T1 construct: from tissue; host or cells: bovine liver
T1 sequence (P00376 1-187): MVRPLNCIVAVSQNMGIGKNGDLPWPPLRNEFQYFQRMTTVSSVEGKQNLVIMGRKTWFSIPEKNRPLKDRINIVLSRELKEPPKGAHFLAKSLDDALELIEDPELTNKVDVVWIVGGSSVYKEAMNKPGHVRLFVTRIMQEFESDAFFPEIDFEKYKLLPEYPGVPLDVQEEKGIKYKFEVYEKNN
Procedure: These assays were carried out on the 7,8-dihydropterin analogs of the compounds of formula I which were tetrahydropterins. The 7,8-dihydropterins were obtained commercially (in the case of dihydrobiopterin) or synthesized from the corresponding compound of formula I. Synthesis of 7,8-dihydropterins involved the combination of 0.27 μmole of a compound of formula I, 20 μg of horseradish peroxidase, 0.6 μmole of hydrogen peroxide in 0.1 ml of 0.5M potassium phosphate buffer, pH 7.5. After 3 min at room temperature, 10 μg of bovine liver catalase was added. The production of the 7,8-dihydropterin was verified by U.V. spectroscopy.
The assay was carried out with bovine liver DHFR using a modification of the method of Bailey and Ayling (J. Biol. Chem., 253, 1598 (1978)) where the desired dihydropterin replaced dihydrobiopterin, and the HPLC system used consisted of an anaerobic 0.1M acetic acid (with or without 10% acetonitrite) solvent on a 25 cm×4.6 mm Dupont TMS-Zorbax column. In our hands, dihydrobiopterin is reduced at a rate 2.5% that of the natural substrate dihydrofolate.

Tryptophan hydroxylase = molecular target: T2, Tryptophan hydroxylase (Rattus norvegicus, UniProt Q8CGU9); test: Tryptophan hydroxylase cofactor assay; format: biochemical; details: for Tryptophan hydroxylase Vmax: tetrahydrobiopterin = 100; for Activity for tryptophan hydroxylase: in words
T2 construct: The preparation of tryptophan hydroxylase was a crude 30,000xg supernatant; from tissue
T2 sequence (Q8CGU9 1-485): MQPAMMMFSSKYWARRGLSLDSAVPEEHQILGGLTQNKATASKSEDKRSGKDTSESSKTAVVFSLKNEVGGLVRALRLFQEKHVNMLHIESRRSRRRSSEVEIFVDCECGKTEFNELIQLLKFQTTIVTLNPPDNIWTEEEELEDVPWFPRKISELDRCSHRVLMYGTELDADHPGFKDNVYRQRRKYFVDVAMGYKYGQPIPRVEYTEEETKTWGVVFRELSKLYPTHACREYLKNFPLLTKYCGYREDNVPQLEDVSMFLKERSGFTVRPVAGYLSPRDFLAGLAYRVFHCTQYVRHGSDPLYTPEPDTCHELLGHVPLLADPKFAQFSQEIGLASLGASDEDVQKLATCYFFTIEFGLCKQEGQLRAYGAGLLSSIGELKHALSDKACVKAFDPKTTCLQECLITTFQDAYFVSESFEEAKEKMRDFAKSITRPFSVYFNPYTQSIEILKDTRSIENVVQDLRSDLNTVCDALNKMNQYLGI
Procedure: Tryptophan hydroxylase was assayed according to a modification of the method of Renson J., et al (Biochem. Biophys. Acta 25: 504 (1966)).

[1] = molecular target: T3, Phenylalanine hydroxylase (Rattus norvegicus, UniProt P04176); test: Phenylalanine hydroxylase cofactor assay; format: biochemical; details: for Phenylalanine hydroxylase Vmax: tetrahydrobiopterin = 100
T3 construct: Phenylalanine hydroxylase was prepared from rat liver using hydrophobic chromatography; from tissue; host or cells: rat liver
T3 sequence (P04176 1-453): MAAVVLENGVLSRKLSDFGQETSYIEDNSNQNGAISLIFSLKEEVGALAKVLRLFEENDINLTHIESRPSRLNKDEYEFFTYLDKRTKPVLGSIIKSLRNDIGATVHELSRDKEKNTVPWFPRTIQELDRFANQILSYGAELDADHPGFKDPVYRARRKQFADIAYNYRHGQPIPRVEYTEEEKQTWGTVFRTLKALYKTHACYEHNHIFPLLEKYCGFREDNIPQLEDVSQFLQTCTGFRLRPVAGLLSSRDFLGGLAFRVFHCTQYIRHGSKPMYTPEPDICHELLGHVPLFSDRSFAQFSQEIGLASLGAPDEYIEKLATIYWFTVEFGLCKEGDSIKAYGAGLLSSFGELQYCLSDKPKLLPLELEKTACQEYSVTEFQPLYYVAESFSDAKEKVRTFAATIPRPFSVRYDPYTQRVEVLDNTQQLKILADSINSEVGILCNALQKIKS

Tyrosine hydroxylase = Tyrosine hydroxylase (Homo sapiens, UniProt P07101); test: Tyrosine hydroxylase cofactor assay; format: biochemical
Procedure: Tyrosine hydroxylase was partially purified through a 25-45% ammonium sulfate fraction. […] The enzyme was assayed by a modification of the method of Nagatsu, T., Levitt, M., and Udenfriend, S. (Anal. Biochem. 9, 122, (1964)) where the Dowex chromatography step was replaced by a charcoal extraction.

[2] = test system: striatal dopamine synthesis, noradrenaline synthesis in peripheral nerves; details: administration of BH4; cited from earlier work
[3] = background statement; cited from earlier work
atypical PKU = details: large quantities; cited from earlier work
depression = details: several patients; cited from earlier work
[4] = background statement; cited from earlier work; remark: listed apart in the source
Parkinson's disease = details: BH4 administration; cited from earlier work
[5] = molecular target: T4, Dihydropteridine reductase (Homo sapiens, UniProt P09417); test: Dihydropteridine reductase assay; format: biochemical; details: quinonoid dihydro form; biopterin form = 100
T4 sequence (P09417 1-244): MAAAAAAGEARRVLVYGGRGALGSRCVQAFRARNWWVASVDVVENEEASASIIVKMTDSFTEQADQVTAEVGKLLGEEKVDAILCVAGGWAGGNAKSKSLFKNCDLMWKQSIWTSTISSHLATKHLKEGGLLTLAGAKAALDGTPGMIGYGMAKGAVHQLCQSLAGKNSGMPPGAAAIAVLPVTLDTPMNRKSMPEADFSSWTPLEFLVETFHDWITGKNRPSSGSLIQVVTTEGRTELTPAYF
Procedure: Dihydropteridine reductase was assayed by the method of Craine, et al., (J. Biol. Chem., 247, 6082 (1972)).

Sequence of Tyrosine hydroxylase (P07101 whole entry): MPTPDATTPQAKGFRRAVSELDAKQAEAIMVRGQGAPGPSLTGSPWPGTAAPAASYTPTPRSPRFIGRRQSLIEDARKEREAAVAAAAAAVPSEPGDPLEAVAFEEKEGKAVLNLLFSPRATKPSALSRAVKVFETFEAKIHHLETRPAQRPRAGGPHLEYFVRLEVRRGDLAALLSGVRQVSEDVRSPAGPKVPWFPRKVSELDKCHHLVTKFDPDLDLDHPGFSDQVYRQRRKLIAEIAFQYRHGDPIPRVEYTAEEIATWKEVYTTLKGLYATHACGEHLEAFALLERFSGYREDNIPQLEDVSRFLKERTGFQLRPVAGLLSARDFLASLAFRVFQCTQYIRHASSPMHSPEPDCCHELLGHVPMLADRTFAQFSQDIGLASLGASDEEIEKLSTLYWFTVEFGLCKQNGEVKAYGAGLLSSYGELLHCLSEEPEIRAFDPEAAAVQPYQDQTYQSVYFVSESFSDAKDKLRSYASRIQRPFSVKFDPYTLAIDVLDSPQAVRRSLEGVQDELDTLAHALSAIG

Compound: CCCCOCC1CNc2nc(N)[nH]c(=O)c2N1 (racemic) [R=C4 H9, (+-)-2-Amino-5,6,7,8-tetrahydro-6-n-butoxymethyl-4(3H)-pteridinone]
Activity for tryptophan hydroxylase (Tryptophan hydroxylase): successively less active
Specificity for tyrosine hydroxylase (Tyrosine hydroxylase; versus tryptophan and phenylalanine hydroxylases): greatest specificity
Activity for phenylalanine hydroxylase ([1]; in words): successively less active

Compound: CC(O)C(O)C1=Nc2c(nc(N)[nH]c2=O)NC1 (stereo not drawn) [7,8-Dihydrobiopterin]
Rate of reduction by DHFR relative to dihydrofolate, the natural substrate (bovine liver DHFR; bovine liver DHFR): 2.5%

Compound: C[C@H](O)[C@H](O)[C@H]1CNc2nc(N)[nH]c(=O)c2N1 [Tetrahydrobiopterin]
Noradrenaline synthesis in peripheral nerves [2]: nearly double
Striatal dopamine synthesis [2]: nearly double
Brain penetration [3]: penetrates brain poorly
Dihydrofolate reductase V (bovine liver DHFR): 100%
Treatment of atypical PKU (atypical PKU): successfully treated
Specific activity of tryptophan hydroxylase with the cofactor (Tryptophan hydroxylase; 37°, crude 30,000xg supernatant): approximately 100 pmol product per milligram protein per minute
Tryptophan hydroxylase Vmax (Tryptophan hydroxylase): 100%
Specific activity of tyrosine hydroxylase preparation with the cofactor (Tyrosine hydroxylase; 25-45% ammonium sulfate fraction): 4.0 nmole/mg protein (min)
Tyrosine hydroxylase Vmax (Tyrosine hydroxylase; tetrahydrobiopterin = 100): 100%
Symptoms of depression (depression): improve the symptoms of depression
Stability [4]: unstable
Symptoms of Parkinson's disease (Parkinson's disease): improve the symptoms of Parkinson's disease
Specific activity of phenylalanine hydroxylase with the co-factor ([1]; 37°, rat liver enzyme): 1.0 μmol/mg protein per minute
Substrate inhibition of phenylalanine hydroxylase by large amounts of phenylalanine ([1]; in words): large amounts of phenylalanine inhibit phenylalanine hydroxylase
Phenylalanine hydroxylase Vmax [1]: 100%
Dihydropteridine reductase Vmax [5]: 100%

The remaining lines, values ahead:

Dihydrofolate reductase V (bovine liver DHFR): 800%
Tryptophan hydroxylase Vmax (Tryptophan hydroxylase): 54%
Phenylalanine hydroxylase Vmax [1]: 79%
Compound: COCC1CNc2nc(N)[nH]c(=O)c2N1 (racemic) [6-Methoxymethyl-tetrahydropterin, (+-)-2-Amino-5,6,7,8-tetrahydro-6-methoxymethyl-4(3H)-pteridinone]

Activity for tryptophan hydroxylase (Tryptophan hydroxylase): active
Activity for tyrosine hydroxylase (Tyrosine hydroxylase; in words): active
Activity for phenylalanine hydroxylase ([1]; in words): active
Compound: CCOCC1CNc2nc(N)[nH]c(=O)c2N1 (racemic) [R=C2 H5, (+-)-2-Amino-5,6,7,8-tetrahydro-6-ethoxymethyl-4(3H)-pteridinone]

Activity for tryptophan hydroxylase (Tryptophan hydroxylase): successively less active
Activity for phenylalanine hydroxylase ([1]; in words): successively less active
Compound: CCCCCCCCOCC1CNc2nc(N)[nH]c(=O)c2N1 (stereo not drawn) [C8 H17]

Activity for tryptophan hydroxylase (Tryptophan hydroxylase): successively less active
Activity for phenylalanine hydroxylase ([1]; in words): successively less active
Compound: CCCOCC1CNc2nc(N)[nH]c(=O)c2N1 (stereo not drawn) [R=C3 H7]
